In the kinase profiling compilation of Christmann-Franck et al. (2016):

What was measured:
Assay in all cases: radiometric filter-binding kinase assay
[1] = target: MAPKAPK3 (human) (UniProt Q16644)
[2] = target: MAPK12 (human) (UniProt P53778)
[3] = target: MAPKAPK5 (human) (UniProt Q8IW41)
[4] = target: MAPK11 (human) (UniProt Q15759)
[5] = target: MAPK3 (human) (UniProt P27361)
[6] = target: PAK4 (human) (UniProt O96013)
[7] = target: MAP2K6 (human) (UniProt P52564)
[8] = tested on: ROCK2 (rat); settings: accession and sequence are those of the human protein
[9] = tested on: AKT1 (human), P31749 [S473D]
[10] = target: TBK1 (human) (UniProt Q9UHD2)
Chain of TBK1 (human) (Q9UHD2 whole entry, looked up): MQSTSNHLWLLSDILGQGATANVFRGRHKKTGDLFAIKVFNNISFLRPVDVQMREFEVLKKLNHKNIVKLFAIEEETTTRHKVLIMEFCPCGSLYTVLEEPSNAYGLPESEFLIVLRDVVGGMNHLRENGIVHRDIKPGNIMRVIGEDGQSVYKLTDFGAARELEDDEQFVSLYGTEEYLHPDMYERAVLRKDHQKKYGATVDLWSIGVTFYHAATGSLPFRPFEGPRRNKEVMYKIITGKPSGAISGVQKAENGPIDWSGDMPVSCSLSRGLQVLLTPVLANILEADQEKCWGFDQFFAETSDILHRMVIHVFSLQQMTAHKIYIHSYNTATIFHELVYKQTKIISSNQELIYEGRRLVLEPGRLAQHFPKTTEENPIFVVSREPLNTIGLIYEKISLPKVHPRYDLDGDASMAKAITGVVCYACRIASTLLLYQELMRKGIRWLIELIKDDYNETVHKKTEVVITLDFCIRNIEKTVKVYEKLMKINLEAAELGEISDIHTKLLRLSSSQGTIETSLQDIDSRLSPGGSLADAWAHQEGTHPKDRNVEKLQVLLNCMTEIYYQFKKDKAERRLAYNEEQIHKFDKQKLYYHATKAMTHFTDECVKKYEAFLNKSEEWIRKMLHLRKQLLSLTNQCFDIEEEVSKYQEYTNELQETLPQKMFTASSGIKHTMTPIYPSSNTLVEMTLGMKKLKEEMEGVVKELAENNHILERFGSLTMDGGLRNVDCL

[11] = target: DAPK1 (human) (UniProt P53355)
[12] = tested on: RPS6KB1 (human), P23443 [T412E]
[13] = target: IKBKE (human) (UniProt Q14164)
[14] = target: MAP3K7 TAB1 (human) (UniProt Q15750+O43318)
[15] = target: MAPK14 (human) (UniProt Q16539)
Chain of MAPK14 (human) (Q16539 whole entry, looked up): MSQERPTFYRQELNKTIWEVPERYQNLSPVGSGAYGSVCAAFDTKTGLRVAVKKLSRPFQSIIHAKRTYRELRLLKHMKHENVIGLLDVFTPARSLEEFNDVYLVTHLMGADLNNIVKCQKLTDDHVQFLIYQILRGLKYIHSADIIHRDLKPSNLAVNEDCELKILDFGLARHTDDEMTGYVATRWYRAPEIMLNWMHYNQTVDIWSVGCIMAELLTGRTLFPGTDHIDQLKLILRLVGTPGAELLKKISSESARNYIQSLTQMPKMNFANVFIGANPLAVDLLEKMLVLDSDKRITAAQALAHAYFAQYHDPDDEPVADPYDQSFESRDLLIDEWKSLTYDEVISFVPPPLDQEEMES

[16] = target: NTRK1 (human) (UniProt P04629)
[17] = target: PIM3 (human) (UniProt Q86V86)
[18] = target: PIM2 (human) (UniProt Q9P1W9)
[19] = target: MAPK8 (human) (UniProt P45983)
Chain of MAPK8 (human) (P45983 whole entry, looked up): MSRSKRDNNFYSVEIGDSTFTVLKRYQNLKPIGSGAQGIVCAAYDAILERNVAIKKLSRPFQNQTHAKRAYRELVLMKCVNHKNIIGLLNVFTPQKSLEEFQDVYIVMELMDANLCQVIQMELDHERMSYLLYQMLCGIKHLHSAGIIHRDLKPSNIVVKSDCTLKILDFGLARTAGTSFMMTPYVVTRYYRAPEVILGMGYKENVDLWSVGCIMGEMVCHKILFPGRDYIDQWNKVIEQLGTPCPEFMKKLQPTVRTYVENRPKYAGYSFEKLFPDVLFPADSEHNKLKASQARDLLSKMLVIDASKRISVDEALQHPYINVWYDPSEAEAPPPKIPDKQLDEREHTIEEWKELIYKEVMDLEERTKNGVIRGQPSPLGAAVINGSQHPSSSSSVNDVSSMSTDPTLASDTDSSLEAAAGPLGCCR

[20] = target: BRSK2 (human) (UniProt Q8IWQ3)
[21] = target: MKNK2 (human) (UniProt Q9HBH9)
[22] = target: RPS6KA3 KD1 KD2 (human) (UniProt P51812)
Chain of RPS6KA3 KD1 KD2 (human) (P51812 whole entry, looked up): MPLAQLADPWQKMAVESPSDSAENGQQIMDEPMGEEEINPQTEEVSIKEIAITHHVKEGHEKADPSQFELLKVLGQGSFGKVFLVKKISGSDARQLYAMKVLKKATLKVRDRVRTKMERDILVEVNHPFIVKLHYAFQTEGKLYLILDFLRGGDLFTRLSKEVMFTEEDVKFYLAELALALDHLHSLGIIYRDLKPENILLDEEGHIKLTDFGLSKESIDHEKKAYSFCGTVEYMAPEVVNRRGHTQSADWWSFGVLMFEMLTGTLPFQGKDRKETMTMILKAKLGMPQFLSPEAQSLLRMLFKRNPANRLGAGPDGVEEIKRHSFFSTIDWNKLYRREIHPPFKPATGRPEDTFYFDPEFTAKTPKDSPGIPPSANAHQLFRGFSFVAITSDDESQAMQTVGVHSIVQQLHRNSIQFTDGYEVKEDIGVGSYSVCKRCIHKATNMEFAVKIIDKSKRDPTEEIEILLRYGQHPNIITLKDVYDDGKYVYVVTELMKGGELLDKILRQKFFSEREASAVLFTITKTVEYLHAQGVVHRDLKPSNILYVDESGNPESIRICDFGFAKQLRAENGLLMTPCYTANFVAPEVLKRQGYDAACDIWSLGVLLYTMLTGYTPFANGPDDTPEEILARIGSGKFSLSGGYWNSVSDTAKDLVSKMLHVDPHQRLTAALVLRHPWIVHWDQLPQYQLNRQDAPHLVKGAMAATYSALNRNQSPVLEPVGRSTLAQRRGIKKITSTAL

[23] = tested on: SGK1 (human), O00141 [S422D]
[24] = target: IRAK4 (human) (UniProt Q9NWZ3)
[25] = target: STK3 (human) (UniProt Q13188)
[26] = target: PIM1 (human) (UniProt P11309)
[27] = target: DYRK3 (human) (UniProt O43781)
[28] = target: MAP3K11 (human) (UniProt Q16584)
Chain of MAP3K11 (human) (Q16584 whole entry, looked up): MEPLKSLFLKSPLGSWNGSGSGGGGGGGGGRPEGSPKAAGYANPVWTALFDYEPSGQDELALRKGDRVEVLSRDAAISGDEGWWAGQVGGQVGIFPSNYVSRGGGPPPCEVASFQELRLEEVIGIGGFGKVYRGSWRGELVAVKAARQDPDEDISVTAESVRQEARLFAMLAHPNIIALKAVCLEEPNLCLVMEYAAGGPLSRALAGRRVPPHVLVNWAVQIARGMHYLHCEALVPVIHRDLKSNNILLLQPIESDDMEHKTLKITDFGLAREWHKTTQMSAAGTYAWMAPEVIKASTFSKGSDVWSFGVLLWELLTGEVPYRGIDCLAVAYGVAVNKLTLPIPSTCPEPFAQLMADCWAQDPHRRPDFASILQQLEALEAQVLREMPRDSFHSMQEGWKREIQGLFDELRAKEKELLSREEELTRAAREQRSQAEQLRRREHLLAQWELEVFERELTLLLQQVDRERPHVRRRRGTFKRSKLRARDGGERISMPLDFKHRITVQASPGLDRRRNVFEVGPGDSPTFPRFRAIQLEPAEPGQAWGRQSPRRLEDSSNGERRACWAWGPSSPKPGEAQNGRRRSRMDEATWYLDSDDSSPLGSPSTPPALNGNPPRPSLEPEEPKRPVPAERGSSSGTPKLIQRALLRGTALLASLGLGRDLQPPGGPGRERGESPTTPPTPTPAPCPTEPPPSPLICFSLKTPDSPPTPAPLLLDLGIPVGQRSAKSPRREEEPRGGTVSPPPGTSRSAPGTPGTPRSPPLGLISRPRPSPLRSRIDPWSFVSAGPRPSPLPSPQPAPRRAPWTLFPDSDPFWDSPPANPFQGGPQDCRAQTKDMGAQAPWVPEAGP

[29] = target: DYRK1A (human) (UniProt Q13627)
[30] = target: EPHB3 (human) (UniProt P54753)
Chain of EPHB3 (human) (P54753 whole entry, looked up): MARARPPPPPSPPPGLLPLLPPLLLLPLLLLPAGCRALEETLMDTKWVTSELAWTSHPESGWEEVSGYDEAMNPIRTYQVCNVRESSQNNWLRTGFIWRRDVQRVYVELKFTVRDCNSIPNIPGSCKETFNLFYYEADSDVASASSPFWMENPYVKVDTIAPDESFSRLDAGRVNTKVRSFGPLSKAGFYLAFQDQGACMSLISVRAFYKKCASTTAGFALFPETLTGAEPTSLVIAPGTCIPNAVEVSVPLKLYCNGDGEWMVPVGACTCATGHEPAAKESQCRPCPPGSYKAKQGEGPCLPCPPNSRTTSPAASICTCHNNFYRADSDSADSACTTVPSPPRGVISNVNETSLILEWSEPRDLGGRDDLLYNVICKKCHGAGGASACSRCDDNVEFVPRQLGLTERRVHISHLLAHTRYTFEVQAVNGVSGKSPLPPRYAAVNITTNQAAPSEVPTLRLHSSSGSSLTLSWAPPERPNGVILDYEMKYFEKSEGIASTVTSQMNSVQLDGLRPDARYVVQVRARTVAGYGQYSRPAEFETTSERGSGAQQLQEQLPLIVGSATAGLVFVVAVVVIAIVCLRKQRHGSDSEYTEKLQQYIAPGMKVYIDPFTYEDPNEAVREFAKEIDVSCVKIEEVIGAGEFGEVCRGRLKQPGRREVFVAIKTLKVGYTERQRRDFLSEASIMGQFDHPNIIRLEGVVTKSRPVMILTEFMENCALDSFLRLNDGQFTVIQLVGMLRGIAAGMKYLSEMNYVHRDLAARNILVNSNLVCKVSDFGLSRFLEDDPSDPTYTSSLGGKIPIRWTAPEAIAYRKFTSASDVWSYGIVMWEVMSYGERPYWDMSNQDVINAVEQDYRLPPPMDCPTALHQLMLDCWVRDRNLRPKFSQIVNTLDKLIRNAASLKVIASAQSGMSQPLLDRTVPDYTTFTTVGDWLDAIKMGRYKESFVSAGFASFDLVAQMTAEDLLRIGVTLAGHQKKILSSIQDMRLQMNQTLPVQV

[31] = target: CLK2 (human) (UniProt P49760)
[32] = target: RPS6KA1 KD1 KD2 (human) (UniProt Q15418)
[33] = target: IKBKB (human) (UniProt O14920)
[34] = target: PLK1 (human) (UniProt P53350)
[35] = target: CSNK2A1 (human) (UniProt P68400)

Chain of MAPK3 (human) (P27361 whole entry, looked up): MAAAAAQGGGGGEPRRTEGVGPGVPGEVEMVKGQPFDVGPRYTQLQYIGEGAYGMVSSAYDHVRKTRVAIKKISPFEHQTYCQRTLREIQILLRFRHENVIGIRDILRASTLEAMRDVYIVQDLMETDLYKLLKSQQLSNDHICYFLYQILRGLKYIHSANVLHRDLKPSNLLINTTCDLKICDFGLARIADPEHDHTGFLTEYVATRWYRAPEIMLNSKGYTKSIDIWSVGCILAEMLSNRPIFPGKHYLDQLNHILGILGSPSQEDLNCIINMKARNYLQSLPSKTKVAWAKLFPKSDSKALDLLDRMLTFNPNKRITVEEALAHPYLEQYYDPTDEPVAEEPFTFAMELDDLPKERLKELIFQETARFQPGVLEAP

Structure (SMILES): CC(C)(C#N)c1ccc(N2C(=O)OCc3cnc4ccc(-c5cnc6ccccc6c5)cc4c32)cc1
- residual activity ([1]; compound 1.0 µM): 88%
- residual activity ([2]; compound 1.0 µM): 88%
- residual activity ([2]; compound 10.0 µM): 100%
- residual activity ([3]; compound 1.0 µM): 82%
- residual activity ([3]; compound 10.0 µM): 89%
- residual activity ([4]; compound 1.0 µM): 89%
- residual activity ([4]; compound 10.0 µM): 103%
- residual activity ([5]; compound 1.0 µM): 85%
- residual activity ([5]; compound 10.0 µM): 83%
- residual activity ([6]; compound 1.0 µM): 94%
- residual activity ([7]; compound 1.0 µM): 101%
- residual activity ([7]; compound 10.0 µM): 92%
- residual activity ([8]; compound 1.0 µM): 120%
- residual activity ([8]; compound 10.0 µM): 104%
- residual activity ([9]; compound 1.0 µM): 102%
- residual activity ([9]; compound 10.0 µM): 117%
- residual activity ([10]; compound 1.0 µM): 83%
- residual activity ([10]; compound 10.0 µM): 96%
- residual activity ([11]; compound 1.0 µM): 84%
- residual activity ([11]; compound 10.0 µM): 88%
- residual activity ([12]; compound 1.0 µM): 91%
- residual activity ([12]; compound 10.0 µM): 96%
- residual activity ([13]; compound 1.0 µM): 111%
- residual activity ([13]; compound 10.0 µM): 97%
- residual activity ([14]; compound 1.0 µM): 64%
- residual activity ([14]; compound 10.0 µM): 78%
- residual activity ([15]; compound 1.0 µM): 93%
- residual activity ([15]; compound 10.0 µM): 134%
- residual activity ([16]; compound 1.0 µM): 50%
- residual activity ([17]; compound 1.0 µM): 67%
- residual activity ([17]; compound 10.0 µM): 55%
- residual activity ([18]; compound 1.0 µM): 91%
- residual activity ([18]; compound 10.0 µM): 96%
- residual activity ([19]; compound 1.0 µM): 106%
- residual activity ([19]; compound 10.0 µM): 109%
- residual activity ([20]; compound 1.0 µM): 89%
- residual activity ([20]; compound 10.0 µM): 100%
- residual activity ([21]; compound 1.0 µM): 94%
- residual activity ([21]; compound 10.0 µM): 99%
- residual activity ([22]; compound 1.0 µM): 89%
- residual activity ([22]; compound 10.0 µM): 100%
- residual activity ([23]; compound 1.0 µM): 96%
- residual activity ([23]; compound 10.0 µM): 82%
- residual activity ([24]; compound 1.0 µM): 90%
- residual activity ([24]; compound 10.0 µM): 89%
- residual activity ([25]; compound 1.0 µM): 64%
- residual activity ([25]; compound 10.0 µM): 49%
- residual activity ([26]; compound 1.0 µM): 81%
- residual activity ([26]; compound 10.0 µM): 73%
- residual activity ([27]; compound 1.0 µM): 57%
- residual activity ([27]; compound 10.0 µM): 64%
- residual activity ([28]; compound 1.0 µM): 81%
- residual activity ([28]; compound 10.0 µM): 83%
- residual activity ([29]; compound 1.0 µM): 89%
- residual activity ([29]; compound 10.0 µM): 83%
- residual activity ([30]; compound 1.0 µM): 116%
- residual activity ([30]; compound 10.0 µM): 103%
- residual activity ([31]; compound 1.0 µM): 75%
- residual activity ([31]; compound 10.0 µM): 91%
- residual activity ([32]; compound 1.0 µM): 96%
- residual activity ([32]; compound 10.0 µM): 73%
- residual activity ([33]; compound 1.0 µM): 86%
- residual activity ([33]; compound 10.0 µM): 87%
- residual activity ([34]; compound 1.0 µM): 93%
- residual activity ([34]; compound 10.0 µM): 87%
- residual activity ([35]; compound 1.0 µM): 97%
- residual activity ([35]; compound 10.0 µM): 97%

Structure (SMILES): NC1(c2ccc(-c3nc4ccn5c(=O)[nH]nc5c4cc3-c3ccccc3)cc2)CCC1
- residual activity ([1]; compound 0.1 µM): 88%
- residual activity ([1]; compound 1.0 µM): 107%
- residual activity ([1]; compound 10.0 µM): 94%
- residual activity ([2]; compound 0.1 µM): 94%
- residual activity ([2]; compound 1.0 µM): 94%
- residual activity ([2]; compound 10.0 µM): 101%
- residual activity ([3]; compound 0.1 µM): 81%
- residual activity ([3]; compound 10.0 µM): 102%
- residual activity ([4]; compound 0.1 µM): 99%
- residual activity ([4]; compound 1.0 µM): 77%
- residual activity ([4]; compound 10.0 µM): 76%
- residual activity ([5]; compound 0.1 µM): 108%
- residual activity ([5]; compound 1.0 µM): 87%
- residual activity ([5]; compound 10.0 µM): 93%
- residual activity ([6]; compound 0.1 µM): 75%
- residual activity ([6]; compound 1.0 µM): 78%
- residual activity ([6]; compound 10.0 µM): 66%
- residual activity ([7]; compound 0.1 µM): 109%
- residual activity ([7]; compound 1.0 µM): 98%
- residual activity ([7]; compound 10.0 µM): 104%
- residual activity ([8]; compound 0.1 µM): 85%
- residual activity ([8]; compound 1.0 µM): 87%
- residual activity ([8]; compound 10.0 µM): 91%
- residual activity ([9]; compound 0.1 µM): 103%
- residual activity ([9]; compound 1.0 µM): 96%
- residual activity ([9]; compound 10.0 µM): 75%
- residual activity ([10]; compound 0.1 µM): 88%
- residual activity ([10]; compound 1.0 µM): 102%
- residual activity ([10]; compound 10.0 µM): 89%
- residual activity ([11]; compound 0.1 µM): 85%
- residual activity ([11]; compound 1.0 µM): 90%
- residual activity ([11]; compound 10.0 µM): 48%
- residual activity ([12]; compound 0.1 µM): 84%
- residual activity ([12]; compound 1.0 µM): 84%
- residual activity ([12]; compound 10.0 µM): 84%
- residual activity ([13]; compound 0.1 µM): 88%
- residual activity ([13]; compound 1.0 µM): 90%
- residual activity ([13]; compound 10.0 µM): 91%
- residual activity ([14]; compound 0.1 µM): 81%
- residual activity ([14]; compound 1.0 µM): 107%
- residual activity ([14]; compound 10.0 µM): 49%
- residual activity ([15]; compound 0.1 µM): 110%
- residual activity ([15]; compound 1.0 µM): 97%
- residual activity ([15]; compound 10.0 µM): 101%
- residual activity ([16]; compound 0.1 µM): 107%
- residual activity ([16]; compound 1.0 µM): 90%
- residual activity ([16]; compound 10.0 µM): 87%
- residual activity ([17]; compound 0.1 µM): 89%
- residual activity ([17]; compound 1.0 µM): 83%
- residual activity ([17]; compound 10.0 µM): 51%
- residual activity ([18]; compound 0.1 µM): 86%
- residual activity ([18]; compound 1.0 µM): 105%
- residual activity ([18]; compound 10.0 µM): 97%
- residual activity ([19]; compound 0.1 µM): 100%
- residual activity ([19]; compound 1.0 µM): 100%
- residual activity ([19]; compound 10.0 µM): 87%
- residual activity ([20]; compound 0.1 µM): 102%
- residual activity ([20]; compound 1.0 µM): 88%
- residual activity ([20]; compound 10.0 µM): 94%
- residual activity ([21]; compound 0.1 µM): 90%
- residual activity ([21]; compound 1.0 µM): 100%
- residual activity ([21]; compound 10.0 µM): 92%
- residual activity ([22]; compound 0.1 µM): 91%
- residual activity ([22]; compound 1.0 µM): 90%
- residual activity ([22]; compound 10.0 µM): 81%
- residual activity ([23]; compound 0.1 µM): 90%
- residual activity ([23]; compound 1.0 µM): 85%
- residual activity ([23]; compound 10.0 µM): 63%
- residual activity ([24]; compound 0.1 µM): 106%
- residual activity ([24]; compound 1.0 µM): 92%
- residual activity ([24]; compound 10.0 µM): 99%
- residual activity ([25]; compound 0.1 µM): 79%
- residual activity ([25]; compound 1.0 µM): 97%
- residual activity ([25]; compound 10.0 µM): 94%
- residual activity ([26]; compound 0.1 µM): 102%
- residual activity ([26]; compound 1.0 µM): 93%
- residual activity ([26]; compound 10.0 µM): 68%
- residual activity ([27]; compound 0.1 µM): 98%
- residual activity ([27]; compound 1.0 µM): 89%
- residual activity ([27]; compound 10.0 µM): 81%
- residual activity ([28]; compound 0.1 µM): 103%
- residual activity ([28]; compound 1.0 µM): 97%
- residual activity ([28]; compound 10.0 µM): 81%
- residual activity ([29]; compound 0.1 µM): 95%
- residual activity ([29]; compound 1.0 µM): 88%
- residual activity ([29]; compound 10.0 µM): 57%
- residual activity ([30]; compound 0.1 µM): 112%
- residual activity ([30]; compound 1.0 µM): 99%
- residual activity ([30]; compound 10.0 µM): 105%
- residual activity ([31]; compound 0.1 µM): 103%
- residual activity ([31]; compound 1.0 µM): 81%
- residual activity ([31]; compound 10.0 µM): 67%
- residual activity ([32]; compound 0.1 µM): 101%
- residual activity ([32]; compound 1.0 µM): 87%
- residual activity ([32]; compound 10.0 µM): 62%
- residual activity ([33]; compound 0.1 µM): 112%
- residual activity ([33]; compound 1.0 µM): 98%
- residual activity ([33]; compound 10.0 µM): 89%
- residual activity ([34]; compound 1.0 µM): 105%
- residual activity ([34]; compound 10.0 µM): 94%
- residual activity ([35]; compound 0.1 µM): 104%
- residual activity ([35]; compound 10.0 µM): 84%
